For eleven molecules, Ki results are on record in ChEMBL document CHEMBL3763023, “Amido/ureidosubstituted benzenesulfonamides-isatin conjugates as low nanomolar/subnanomolar inhibitors of the tumor-associated carbonic anhydrase isoform XII” (Eur J Med Chem, 2016).

One assay addresses Carbonic anhydrase 9 (Homo sapiens, UniProt Q16790). As to the kind of experiment: Inhibition of recombinant human carbonic anhydrase 9 incubated for 15 mins prior to testing by stopped flow carbon dioxide hydrase assay.
A further assay addresses Carbonic anhydrase 2 (Homo sapiens, UniProt P00918). The assay is described as follows: Inhibition of recombinant human carbonic anhydrase 2 incubated for 15 mins prior to testing by stopped flow carbon dioxide hydrase assay.

A value given as a limit tells only on which side of the number the result lay.

Regarding `NS(=O)(=O)c1ccc(NC(=O)Nc2ccc(/N=C3\C(=O)Nc4ccc(Cl)cc43)cc2)cc1`, the Ki (in general, the equilibrium dissociation constant of an inhibitor or competing ligand from its target) at Carbonic anhydrase 9 worked out at 239 nM.

Take `NS(=O)(=O)c1ccc(NC(=O)Nc2ccc(/N=C3\C(=O)Nc4ccccc43)cc2)cc1`: at Carbonic anhydrase 9, the Ki came out at 217 nM. In the case of `NS(=O)(=O)c1ccc(NC(=O)Nc2ccc(/N=C3\C(=O)Nc4ccc(F)cc43)cc2)cc1`, the Ki on Carbonic anhydrase 9 was found to be 235 nM. Consider `NS(=O)(=O)c1ccc(NC(=O)Nc2ccc(/N=C3\C(=O)Nc4ccc([N+](=O)[O-])cc43)cc2)cc1`, for which the Ki at Carbonic anhydrase 9 was determined as 14.8 nM. Regarding `Cc1ccc2c(c1)/C(=N/c1ccc(NC(=O)Nc3ccc(S(N)(=O)=O)cc3)cc1)C(=O)N2`, on Carbonic anhydrase 9, the Ki was 16.7 nM. Regarding `NS(=O)(=O)c1ccc(NC(=O)c2ccc(/N=C3\C(=O)Nc4ccc(Cl)cc43)cc2)cc1`, the Ki on Carbonic anhydrase 9 came out at 194 nM. Take `NS(=O)(=O)c1ccc(NC(=O)c2ccc(/N=C3\C(=O)Nc4ccc(Br)cc43)cc2)cc1`: the inhibitory constant (Ki) on Carbonic anhydrase 9 was determined as 208 nM. With `NS(=O)(=O)c1ccc(NC(=O)Nc2ccc(/N=C3\C(=O)Nc4ccc(Br)cc43)cc2)cc1`, the Ki on Carbonic anhydrase 2 was over 10000 nM; on Carbonic anhydrase 9 it was 192 nM. As for `Nc1ccc(C(=O)Nc2ccc(S(N)(=O)=O)cc2)cc1`, at Carbonic anhydrase 9, the Ki was determined as 159 nM. Take `NS(=O)(=O)c1ccc(/N=C2\C(=O)Nc3ccc([N+](=O)[O-])cc32)cc1`: the Ki at Carbonic anhydrase 9 is 5 nM.

Turning to `NS(=O)(=O)c1ccc(NC(=O)c2ccc(/N=C3\C(=O)Nc4ccccc43)cc2)cc1`, at Carbonic anhydrase 9, the Ki turned out to be 240 nM.
